Usually Ki stands for a dissociation constant, usually derived from enzyme kinetics or from competition with a known ligand.

Structures are written as SMILES. Where two headings read alike, the source gives them in different places.

The record followed here is patent US8410310B2, “Trypsin-like serine protease inhibitors, and their preparation and use” (The Medicines Company (Leipzig) GmbH, priority 2006, dated 2013).

Holding throughout (format): biochemical
One test deals with plasma kallikrein (Homo sapiens, UniProt P03952). Briefly: Determination of inhibition constants for PK. Details: purchased Enzyme Research Lab. / Enzyme Research Laboratories. Here is the method: (§1) The inhibitory effect for the individual enzymes was determined in analogy to a previously disclosed method (Stürzebecher et al., 1997).
(§2) For zero order kinetics, the reaction was stopped after 20 min by adding 25 μl of acetic acid (50% v/v), and the absorption at 405 nm was determined using a Microplate Reader (Multiscan Ascent, from Thermo). In the case of pseudo-first order kinetics, the reaction rates in the equilibrium state were ascertained by recording the reaction kinetics. The Ki values were ascertained either in accordance with Dixon (1953) by linear regression using a computer program or by parameter fitting in accordance with the rate equation for competitive inhibition. The Ki values are the average of at least two determinations.

In a further test the target is Xa (Homo sapiens, UniProt P00742). Briefly: Determination of inhibition constants for Xa. Here is the method: as §1, §2
A further test deals with plasmin (Homo sapiens, UniProt P00747). In words: Determination of inhibition constants for plasmin. The arrangement: purchased Calbiochem. As for the experimental part: as §1, §2
For the next test, the target named is Thrombin (Homo sapiens, UniProt P00734). In words: Determination of inhibition constants for thrombin. As for the experimental part: as §1, §2
[1] abbreviates: 25° C., substrate S2302, pH 8.0, read-out: PK [Ki].
Setting [2] is: 25° C., substrate Chromozym PL, pH 8.0, read-out: Plasmin [Ki].
The mark [3] stands for this setting: summary of results, read-out: Ki value of the plasmin inhibition.
[4] abbreviates: summary of results, read-out: Ki value of the plasma kallikrein inhibition.

Sequence of plasmin (P00747 581-810 limits assumed): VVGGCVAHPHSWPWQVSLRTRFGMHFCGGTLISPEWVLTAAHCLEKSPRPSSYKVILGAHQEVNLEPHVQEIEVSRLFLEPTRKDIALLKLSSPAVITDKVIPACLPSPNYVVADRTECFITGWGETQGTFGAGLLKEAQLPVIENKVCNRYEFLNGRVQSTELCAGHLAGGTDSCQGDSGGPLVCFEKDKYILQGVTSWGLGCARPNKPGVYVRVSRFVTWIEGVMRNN
Sequence of plasmin (P00747 97-580 partner limits assumed): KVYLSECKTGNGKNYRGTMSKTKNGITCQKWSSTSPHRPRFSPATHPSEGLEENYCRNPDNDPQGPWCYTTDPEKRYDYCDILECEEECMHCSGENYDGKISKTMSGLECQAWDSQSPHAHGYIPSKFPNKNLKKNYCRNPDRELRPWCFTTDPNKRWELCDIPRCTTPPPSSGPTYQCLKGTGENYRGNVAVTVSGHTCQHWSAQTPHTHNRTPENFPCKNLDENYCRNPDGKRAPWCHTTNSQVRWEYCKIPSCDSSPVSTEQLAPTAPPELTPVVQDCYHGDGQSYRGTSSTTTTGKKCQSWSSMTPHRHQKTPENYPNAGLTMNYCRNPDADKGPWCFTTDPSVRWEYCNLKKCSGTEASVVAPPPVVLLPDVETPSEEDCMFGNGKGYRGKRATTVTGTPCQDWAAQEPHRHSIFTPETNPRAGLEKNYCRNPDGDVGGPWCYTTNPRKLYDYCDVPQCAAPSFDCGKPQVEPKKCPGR
Sequence of Xa (P00742 235-488 limits assumed): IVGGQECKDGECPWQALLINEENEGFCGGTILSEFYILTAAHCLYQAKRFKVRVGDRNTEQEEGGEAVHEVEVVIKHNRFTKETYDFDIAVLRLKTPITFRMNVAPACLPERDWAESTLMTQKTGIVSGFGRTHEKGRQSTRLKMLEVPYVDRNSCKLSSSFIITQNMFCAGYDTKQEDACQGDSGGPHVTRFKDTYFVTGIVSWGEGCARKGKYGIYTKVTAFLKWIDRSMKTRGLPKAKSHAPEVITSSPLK
Sequence of Xa (P00742 41-179 limits assumed): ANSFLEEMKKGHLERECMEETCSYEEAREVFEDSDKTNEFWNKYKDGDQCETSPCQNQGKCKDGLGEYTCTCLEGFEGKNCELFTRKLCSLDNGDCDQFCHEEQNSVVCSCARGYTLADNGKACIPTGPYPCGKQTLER
Sequence of plasma kallikrein (P03952 391-638 limits assumed): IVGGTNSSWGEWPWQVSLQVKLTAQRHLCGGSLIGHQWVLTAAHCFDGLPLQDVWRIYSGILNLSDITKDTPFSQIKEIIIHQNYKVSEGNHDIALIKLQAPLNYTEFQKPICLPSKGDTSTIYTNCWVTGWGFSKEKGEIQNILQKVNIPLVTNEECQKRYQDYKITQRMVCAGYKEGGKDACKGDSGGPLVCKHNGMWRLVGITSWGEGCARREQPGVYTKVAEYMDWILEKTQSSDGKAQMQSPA
Sequence of plasma kallikrein (P03952 20-390 partner limits assumed): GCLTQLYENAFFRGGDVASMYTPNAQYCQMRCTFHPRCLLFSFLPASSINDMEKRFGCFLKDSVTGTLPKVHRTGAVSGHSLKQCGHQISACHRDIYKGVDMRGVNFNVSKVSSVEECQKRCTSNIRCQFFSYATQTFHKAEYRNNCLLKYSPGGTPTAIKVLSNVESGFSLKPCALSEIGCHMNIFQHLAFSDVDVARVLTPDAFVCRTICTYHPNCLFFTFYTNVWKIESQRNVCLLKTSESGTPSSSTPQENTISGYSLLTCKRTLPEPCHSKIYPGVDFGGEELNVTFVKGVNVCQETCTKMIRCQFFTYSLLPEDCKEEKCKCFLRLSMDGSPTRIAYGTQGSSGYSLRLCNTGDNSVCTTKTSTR

`N=C(N)c1ccc(CNC(=O)[C@H](CCc2ccccc2)NC(=O)[C@@H](CCCc2ccccc2)NS(=O)(=O)Cc2ccccc2)cc1` [compound 34]: the inhibitory constant (Ki) on plasma kallikrein (setting [1]) was < 0.01 µM; at Xa, < 1 µM; at plasmin (setting [2]), < 0.01 µM; on Thrombin, < 0.1 µM.
Take `N=C(N)c1ccc(CNC(=O)[C@H](CCc2ccccc2)NC(=O)[C@@H](CCCc2ccccc2)NS(=O)(=O)Cc2ccc(C(=O)O)cc2)cc1` [compound 35]: the Ki at plasma kallikrein (setting [1]) is < 0.01 µM; on Xa it was < 1 µM; at plasmin (setting [2]), < 0.01 µM; on plasmin (setting [3]), < 0.005 µM; on Thrombin, < 1 µM.
In the case of `N=C(N)c1ccc(CNC(=O)[C@H](CCc2ccccc2)NC(=O)[C@@H](CCCc2ccccc2)NS(=O)(=O)Cc2cccc(C(=O)O)c2)cc1` [compound 36], the Ki at plasma kallikrein (setting [1]) was < 0.01 µM; on Xa, < 0.1 µM; at plasmin (setting [2]), < 0.01 µM; on Thrombin, < 1 µM.
As for `N=C(N)c1ccc(CNC(=O)[C@H](CCc2ccc(CN)cc2)NC(=O)[C@@H](CC2CCCCC2)NS(=O)(=O)Cc2ccccc2)cc1` [compound 37], the Ki at plasma kallikrein (setting [1]), at Xa, at plasmin (setting [2]) and at Thrombin was < 0.1 µM each time.
For `N=C(N)c1ccc(CC[C@H](NC(=O)[C@@H](CC2CCCCC2)NS(=O)(=O)Cc2ccccc2)C(=O)NCc2ccc(C(=N)N)cc2)cc1` [compound 38], the Ki on plasma kallikrein (setting [1]) was < 0.1 µM; at Xa it was < 0.1 µM; on plasmin (setting [2]), < 0.01 µM; at plasmin (setting [3]), < 0.005 µM; on Thrombin it was < 0.01 µM.
On to `N=C(N)c1ccc(CNC(=O)[C@H](CCc2ccncc2)NC(=O)[C@@H](CCCc2ccccc2)NS(=O)(=O)Cc2ccccc2)cc1` [compound 39], for which the Ki on plasma kallikrein (setting [1]) was < 0.01 µM; on plasma kallikrein (setting [4]), < 0.001 µM; at Xa, < 0.1 µM; at plasmin (setting [2]), < 0.01 µM; at plasmin (setting [3]), < 0.005 µM; at Thrombin, < 0.01 µM.
With `N=C(N)c1ccc(CNC(=O)[C@H](CCc2ccncc2)NC(=O)[C@@H](CCCc2ccccc2)NS(=O)(=O)Cc2cccc(C(=O)O)c2)cc1` [compound 40], the inhibitory constant (Ki) was < 0.01 µM at plasma kallikrein (setting [1]); < 0.001 µM at plasma kallikrein (setting [4]); < 1 µM on Xa; < 0.01 µM on plasmin (setting [2]); < 0.1 µM on Thrombin.
For `N=C(N)c1ccc(CNC(=O)[C@H](CCc2cc[n+]([O-])cc2)NC(=O)[C@@H](CCCc2ccccc2)NS(=O)(=O)Cc2ccccc2)cc1` [compound 41], the Ki is < 0.01 µM on plasma kallikrein (setting [1]), < 1 µM at Xa, < 0.01 µM at plasmin (setting [2]) and < 0.1 µM at Thrombin.
`N=C(N)c1ccc(CNC(=O)[C@H](CCc2cc[n+]([O-])cc2)NC(=O)[C@@H](CCCc2ccccc2)NS(=O)(=O)Cc2cccc(C(=O)O)c2)cc1` [compound 42]: the Ki at plasma kallikrein (setting [1]) was < 0.01 µM; on Xa it was > 1 µM; at plasmin (setting [2]) it was < 0.1 µM; on Thrombin, < 1 µM.
In the case of `N=C(N)c1ccc(CNC(=O)[C@H](CCc2ccncc2)NC(=O)[C@@H](CC2CCCCC2)NS(=O)(=O)Cc2ccccc2)cc1` [compound 43], the Ki at plasma kallikrein (setting [1]) was < 0.1 µM; at Xa, < 0.1 µM; on plasmin (setting [2]), < 0.01 µM; on Thrombin, < 0.01 µM.
As for `N=C(N)c1ccc(CNC(=O)[C@H](CCc2ccncc2)NC(=O)[C@@H](CCc2ccccc2)NS(=O)(=O)Cc2ccccc2)cc1` [compound 44], the Ki at plasma kallikrein (setting [1]), on Xa, on plasmin (setting [2]) and on Thrombin was < 0.1 µM throughout.
As for `N#Cc1cccc(C[C@@H](NS(=O)(=O)Cc2ccccc2)C(=O)N[C@@H](CCc2ccncc2)C(=O)NCc2ccc(C(=N)N)cc2)c1` [compound 45], the Ki on plasma kallikrein (setting [1]) was < 0.01 µM; on Xa it was < 1 µM; at plasmin (setting [2]) it was < 0.01 µM; on Thrombin, < 0.1 µM.
In the case of `N=C(N)c1ccc(CNC(=O)[C@H](CCc2ccncc2)NC(=O)[C@H](NS(=O)(=O)Cc2ccccc2)C2Cc3ccccc3C2)cc1` [compound 46], the Ki on plasma kallikrein (setting [1]) was < 0.01 µM; on Xa, < 1 µM; on plasmin (setting [2]), < 0.01 µM; on plasmin (setting [3]) it was < 0.005 µM; at Thrombin, < 0.1 µM.
On to `N=C(N)c1ccc(CNC(=O)[C@H](CCc2ccncc2)NC(=O)[C@@H](CCc2ccc(O)cc2)NS(=O)(=O)Cc2ccccc2)cc1` [compound 47], for which the Ki on plasma kallikrein (setting [1]), on Xa, on plasmin (setting [2]) and on Thrombin was < 0.01 µM in each case.
On to `N=C(N)c1ccc(CNC(=O)[C@H](CCCc2ccccc2)NC(=O)[C@@H](CCc2ccncc2)NS(=O)(=O)Cc2ccccc2)cc1` [compound 48], for which the Ki at plasma kallikrein (setting [1]) is < 0.01 µM; on Xa, < 0.01 µM; on plasmin (setting [2]), < 0.01 µM; at Thrombin it was < 1 µM.
For `N=C(N)c1ccc(CNC(=O)[C@H](CCc2ccccc2)NC(=O)[C@@H](CCCc2ccncc2)NS(=O)(=O)Cc2ccccc2)cc1` [compound 49], the Ki on plasma kallikrein (setting [1]) is < 0.01 µM; at Xa it was < 0.1 µM; at plasmin (setting [2]), < 0.01 µM; on Thrombin, < 0.1 µM.
For the compound `N=C(N)c1ccc(CNC(=O)[C@H](CCc2ccccc2)NC(=O)[C@@H](CCCc2ccncc2)NS(=O)(=O)Cc2cccc(C(=O)O)c2)cc1` [compound 50], the Ki at plasma kallikrein (setting [1]) is < 0.01 µM; at Xa, < 0.1 µM; on plasmin (setting [2]) it was < 0.01 µM; at Thrombin, < 1 µM.
In the case of `N=C(N)c1ccc(CNC(=O)[C@H](CCc2ccccc2)NC(=O)[C@@H](CCCc2cccnc2)NS(=O)(=O)Cc2ccccc2)cc1` [compound 51], the Ki at plasma kallikrein (setting [1]), on Xa, at plasmin (setting [2]) and at Thrombin was < 0.01 µM each time.
For `N=C(N)c1ccc(CNC(=O)[C@H](CCc2ccccc2)NC(=O)[C@@H](CCCc2cccnc2)NS(=O)(=O)Cc2cccc(C(=O)O)c2)cc1` [compound 52], the Ki on plasma kallikrein (setting [1]) is < 0.01 µM; on Xa it was < 0.01 µM; at plasmin (setting [2]), < 0.01 µM; on Thrombin, < 0.1 µM.
For the compound `N=C(N)c1ccc(CNC(=O)[C@H](CCc2ccccc2)NC(=O)[C@@H](CCCc2cc[n+]([O-])cc2)NS(=O)(=O)Cc2ccccc2)cc1` [compound 53], the inhibitory constant (Ki) on plasma kallikrein (setting [1]) was < 0.01 µM; on Xa it was < 0.01 µM; at plasmin (setting [2]), < 0.01 µM; at Thrombin, < 0.1 µM.
As for `N=C(N)c1ccc(CNC(=O)[C@H](CCc2ccccc2)NC(=O)[C@@H](CCCc2cc[n+]([O-])cc2)NS(=O)(=O)Cc2cccc(C(=O)O)c2)cc1` [compound 54], the inhibition constant Ki was < 0.01 µM on plasma kallikrein (setting [1]), < 0.1 µM on Xa, < 0.01 µM on plasmin (setting [2]) and > 1 µM on Thrombin.
As for `N=C(N)c1ccc(CNC(=O)[C@H](CCc2ccccc2)NC(=O)[C@@H](CCCc2ccc[n+]([O-])c2)NS(=O)(=O)Cc2ccccc2)cc1` [compound 55], the Ki was < 0.01 µM on plasma kallikrein (setting [1]), < 0.01 µM on Xa, < 0.01 µM on plasmin (setting [2]) and < 0.1 µM at Thrombin.
For `N=C(N)c1ccc(CNC(=O)[C@H](CCc2ccccc2)NC(=O)[C@@H](CCCc2ccc[n+]([O-])c2)NS(=O)(=O)Cc2cccc(C(=O)O)c2)cc1` [compound 56], the inhibition constant Ki was < 0.01 µM at plasma kallikrein (setting [1]), < 0.01 µM on Xa, < 0.01 µM on plasmin (setting [2]) and < 1 µM at Thrombin.
